We go through 1 compound from US20190070170A1, “METHOD OF S[…]-1” (Macau University of Science and Technology, priority 2017, published 2019).

Common to all, as to assay type: cell-based
For assay [1], the system named is mPGES-1. Description: mPGES-1 protein expression in IL-1β-stimulated A549 cells (western blotting). Particulars: IL-1β with SIN or DEX for 48 h. As to the method: RAW264.7 and A549 cell lines were obtained from American Type Culture Collection (ATCC, Manassas, Va., USA) and maintained in DMEM (RAW264.7) or 1640 (A549) medium containing 10% FBS (Gibco-BRL, Grand Island, N.Y., USA) and antibiotics at 37° C. in a humidified atmosphere containing 5% CO2. RAW264.7 cells were plated in 6-well plates at a density of 4×10^5 cells and incubated for 24 h, then the cells were pretreated with different concentrations of SIN for 1 h before stimulating with LPS (100 ng/ml). A549 cells were seeded in 6-well plates at a density of 1×10^5 cells and incubated for 24 h, followed by pretreatment with SIN. A549 cells were then stimulated by IL-1β (1 ng/ml).
Whole-cell and nuclear proteins were obtained using RIPA lysis buffer (CST, Boston, Mass., USA) and Nuclear and Cytoplasmic Extraction Reagents kit from Thermo Scientific (Asheville, N.C., USA), respectively. For immunoblotting, proteins from whole-cell, cytoplasm, nuclear, and microsomal fractions were separated on SDS-PAGE, then transferred onto a nitrocellulose membrane from GE Healthcare Life Sciences (Buckinghamshire, UK), and incubated with 5% skimmed milk at room temperature for 1 h. […] The levels of protein expression were measured using Odyssey v3.0 software from Li-COR (Lincoln, Nebr., USA).

In assay [2] the test system is mitogen-activated protein kinase (MAPK). Description: MAPK pathway (p-JNK, p-p38, p-ERK, p-c-Jun) in LPS-stimulated rat peritoneal macrophages (western blotting). Particulars: SIN 1 h, LPS 1 μg/ml 15 min or 1 h. As to the method: (§1) Sprague-Dawley (SD) rats from the University of Hong Kong were housed in cages with free access to food and water. Peritoneal macrophages of SD rats were isolated as described in Liu J. et al., Pharmacological research 2016, 111:303-315. Briefly, untreated rats were sacrificed and after laparotomy, about 50 ml cold sterile Hank's balanced salt solution (HBSS) was used to lavage the peritoneal cavity at twice, and then the peritoneal lavage fluid was collected and centrifuged at 1500 rpm for 10 min. The cell pellets was suspended at a density 1.5×10^6 cells/ml in pre-hearted DMEM medium with 10% heat-inactivated FBS, penicillin G (100 units/ml), streptomycin ([…]), and L-glutamine (2 mM), followed by seeding in 6-well plates at a density of 4.5×10^6 cells and incubation for 2 h. Then the medium were discarded to remove the non-adherent cells. The adherent cells were further washed for two times with pre-heated DMEM medium to remove floating cells. Next, cells were pre-treated with various concentration of SIN for 1 h, followed by stimulation with LPS (1 μg/ml).
Whole-cell and nuclear proteins were obtained using RIPA lysis buffer (CST, Boston, Mass., USA) and Nuclear and Cytoplasmic Extraction Reagents kit from Thermo Scientific (Asheville, N.C., USA), respectively. […] The levels of protein expression were measured using Odyssey v3.0 software from Li-COR (Lincoln, Nebr., USA).
Background: In western blotting, separated proteins are transferred to a membrane and probed.

The test system of assay [3] is PGI2. Description: PGI2 level in culture supernatants of LPS-activated rat peritoneal macrophages (ELISA). Particulars: LPS-stimulated rat peritoneal macrophages, culture supernatant. As to the method: as §1
RAW264.7 cells and rat peritoneal macrophages were seeded in a 96-well plate at density of 1.4×10^4 and 1.5×10^5 cells, respectively. […] The optical density was measured at 570 nm against a reference wavelength of 650 nm using a microplate UV/VIS spectrophotometer (Tecan, Mannedorf, Switzerland). […]

In assay [4] the test system is C/EBPβ. Description: C/EBPβ phosphorylation and nuclear translocation in LPS-stimulated rat peritoneal macrophages (western blotting, immunofluorescence). Particulars: SIN 1 h. As to the method:
as §1
Whole-cell and nuclear proteins were obtained using RIPA lysis buffer (CST, Boston, Mass., USA) and Nuclear and Cytoplasmic Extraction Reagents kit from Thermo Scientific (Asheville, N.C., USA), respectively. […] The levels of protein expression were measured using Odyssey v3.0 software from Li-COR (Lincoln, Nebr., USA). […]

Take `COC1=C[C@@H]2[C@@H]3Cc4ccc(OC)c(O)c4[C@]2(CCN3C)CC1=O` [SIN, sinomenine]: the mPGES-1 protein expression entry in assay [1] is “significantly and dose-dependently inhibited”. For the same compound, the “influence on MAPK pathway” value in assay [2] was “No observable effects”. In addition, the “level of PGI2” value in assay [3] is given as “no significant influence”. Besides, in assay [4] (LPS 30 min), the “LPS-induced phosphorylation of C/EBPβ (Ser105 and T235+T188)” value is reported as “inhibitory effects”. The “LPS-induced nuclear translocation of C/EBPβ” value in assay [4] (LPS 2 h) was “inhibitory effects”.
